Experiment [1] relates to Human ES cells (KhES-1 strain). Description: Effect of each Wnt signal transduction pathway inhibiting substance on production of cell mass containing neural tissue and nonneural epithelial tissue (Example 7). It is filed as cell-based. Conditions: inhibitor added from start of suspension culturing (IWP-2 2 or 5 μM, C-59 2 μM, IWP-L6 1 or 10 μM, LGK974 1 or 5 μM, KY 02111 1 or 5 μM, XAV939 1 μM) with SB-431542 1 μM; BMP4 1.5 nM on day 2; bright field observation day 10. The protocol: Human ES cells (KhES-1 strain) were cultured under feeder-free conditions according to the method described in Scientific Reports, 4, 3594 (2014). As the feeder-free medium, StemFit medium was used and, as the feeder-free scaffold, Laminin 511-E8 was used. Specific maintenance culturing operation was performed in the same manner as in Example 1.
The thus-prepared subconfluent human ES cells were washed with PBS, subjected to an enzyme treatment using Accumax, a mukessei medium medium for differentiation induction was added, and the cells were scraped from the surface of the culture dish by using a cell scraper and dispersed into single cells by pipetting. Thereafter, the aforementioned human ES cells dispersed into single cells were suspended in 100 μl of a serum-free medium at 1.2×10^4 cells per well of a non-cell-adhesive 96-well culture plate (PrimeSurface 96V-bottom plate, manufactured by SUMITOMO BAKELITE), and cultured in suspension under the conditions of 37° C., 5% CO2. As the serum-free medium (gfCDM+KSR) therefor, a serum-free medium which is a 1:1 mixture of F-12+Glutamax medium and IMDM+Glutamax medium supplemented with 5% Knockout Serum Replacement, 450 μM 1-mono thioglycerol, 1× Chemically defined lipid concentrate, 50u/ml penicillin-50 μg/ml streptomycin was used. At the time of the start of suspension culturing (day 0 from the start of suspension culturing, start of step 1), Y27632 (final concentration 20 μM) and SB-431542 (1 μM) were added to the aforementioned serum-free medium. As the Wnt signal transduction pathway inhibiting substance, IWP-2 (manufactured by Tocris Bioscience, 2 or 5 μM), C-59 (manufactured by Cayman Chemicals, 2 μM), IWP-L6 (manufactured by AdooQ bioscience, 1 or 10 μM), LGK974 (manufactured by Cayman Chemicals, 1 or 5 μM), KY 02111 (manufactured by Cayman Chemicals, 1 or 5 μM), or XAV939 (manufactured by Cayman Chemicals, 1 μM) was added at the start of the suspension culturing, and the condition with the addition of DMSO alone as a control of no addition of a Wnt signal transduction pathway inhibiting substance was performed. Thereafter, a serum-free medium not containing Y27632 and containing each Wnt signal transduction pathway inhibiting substance, SB-431542 and BMP4 was added at 100 μl per well on day 2 from the start of suspension culturing. BMP4 was added at 3 nM to the medium so that the final concentration in the well could be 1.5 nM. A half amount of the medium was changed with a serum-free medium not containing Y27632 or BMP and containing each Wnt signal transduction pathway inhibiting substance and SB-431542 on day 6 from the start of suspension culturing. Bright field observation was performed under an inverted microscope (manufactured by KEYENCE CORPORATION, BIOREVO) on day 10 from the start of suspension culturing (FIGS. 8A-K).

In experiment [2] the test system is Human ES cells (KhES-1 strain). Description: Effect of compound pre-treatment before differentiation induction on quality grade of cell masses (Example 8). It is filed as cell-based. As to conditions: day 15 of differentiation induction; for number of Grade 1 cell masses (near spherical, not less than 80% of circumference coated with nonneural epithelium) / number of Grade 2 cell masses (80% to 40% of circumference coated with nonneural epithelium, or distorted shape) / number of Grade 3 cell masses (nonneural epithelium on surface not more than 40%): of 32 cell masses, pre-treatment 6 days after seeding (300 nM SAG and/or 5 μM SB-431542). The protocol:
Human ES cells (KhES-1 strain) were cultured under feeder-free conditions according to the method described in Scientific Reports, 4, 3594 (2014). As the feeder-free medium, StemFit medium was used and, as the feeder-free scaffold, Laminin 511-E8 was used. Specific maintenance culturing operation was performed in the same manner as in Example 1. Cells under 4 conditions were prepared including conditions in which, when the cultured cells are used for differentiation induction, nothing is simultaneously added with medium change with […] medium (Control), conditions in which 300 nM SAG alone is added (+300 nM SAG), conditions in which 5 µM SB-431542 alone is added (+5 μM SB-431542), and conditions in which SAG and SB431542 are simultaneously added (+SAG/SB) at 6 days after seeding. The next day of the above-mentioned treatment, human ES cells under 4 conditions that reached subconfluence were each subjected to differentiation induction by suspension culturing into a cell mass containing neural tissue and nonneural epithelial tissue according to the method described in Example 1. Thereafter, on day 15 of differentiation induction, bright field observation was performed using an inverted microscope (manufactured by KEYENCE CORPORATION, BIOREVO). The cell masses formed after each pre-treatment were evaluated in three stages of cell masses with near spherical form in which not less than 80% of the whole circumference is coated with nonneural epithelium (Grade 1, e.g.-FIG. 9A); cell masses in which 80% to 40% of the whole circumference is coated with nonneural epithelium, or with a distorted shape (Grade 2, e.g.-FIG. 9B); and cell masses in which the proportion of nonneural epithelium on the cell mass surface is not more than 40% (Grade 3, e.g.=FIG. 9C).

In the case of `Cc1cc(-c2ccc(CC(=O)Nc3ccc(-c4cccnc4)cc3)cc2)ccn1` [C-59], the “formation of cell mass having nonneural epithelial tissue on the surface” value (“formation” for short) in experiment [1] was “a cell mass having nonneural epithelial tissue on the surface was formed”.

As to `Cc1ccc2nc(NC(=O)CSc3nc4c(c(=O)n3-c3ccccc3)SCC4)sc2c1` [IWP-2], the “formation” value in experiment [1] is recorded as “a cell mass having nonneural epithelial tissue on the surface was formed”.

With `O=C(CSc1nc2c(c(=O)n1-c1ccccc1)SCC2)Nc1ccc(-c2ccccc2)cn1` [IWP-L6], the “formation” value in experiment [1] is given as “a cell mass having nonneural epithelial tissue on the surface was formed”.

With `COc1ccc(CCC(=O)Nc2nc3ccc(Cl)cc3s2)cc1OC` [KY02111], the “formation” value in experiment [1] is recorded as “a cell mass having nonneural epithelial tissue on the surface was formed”.

`Cc1cc(-c2ncc(CC(=O)Nc3ccc(-c4cnccn4)cn3)cc2C)ccn1` [LGK974]: the “formation” value in experiment [1] is reported as “a cell mass having nonneural epithelial tissue on the surface was formed”.

Consider `CNC1CCC(N(Cc2cccc(-c3ccncc3)c2)C(=O)c2sc3ccccc3c2Cl)CC1` (stereo not shown) [SAG, N-Methyl-N′-(3-pyridinylbenzyl)-N′-(3-chlorobenzo[b]thiophene-2-carbonyl)-1,4-diaminocyclohexane], for which, in experiment [2], the “number of Grade 1 cell masses (near spherical, not less than 80% of circumference coated with nonneural epithelium)” value stood at 10; the “number of Grade 2 cell masses (80% to 40% of circumference coated with nonneural epithelium, or distorted shape)” value was found to be 18; the “number of Grade 3 cell masses (nonneural epithelium on surface not more than 40%)” value came out at 4.

For the compound `NC(=O)c1ccc(-c2nc(-c3ccc4c(c3)OCO4)c(-c3ccccn3)[nH]2)cc1` [SB-431542, 4-(5-benzol[1,3]dioxol-5-yl-4-pyridin-2-yl-1H-imidazol-2-yl)-benzamide], in experiment [2], the “number of Grade 1 cell masses (near spherical, not less than 80% of circumference coated with nonneural epithelium)” value was found to be 28; the “number of Grade 2 cell masses (80% to 40% of circumference coated with nonneural epithelium, or distorted shape)” value was 4; the “number of Grade 3 cell masses (nonneural epithelium on surface not more than 40%)” value was 0. In addition, the “proportion of Grade 1 cell masses as compared to Control with no treatment” value in experiment [2] (pre-treatment 6 days after seeding) is on record as “drastically improved”.

For the compound `Oc1nc(-c2ccc(C(F)(F)F)cc2)nc2c1CSCC2` [XAV939], the “formation” value in experiment [1] was “a cell mass having nonneural epithelial tissue on the surface was formed”.

Source of the values: patent US20210071137A1, “PRODUCTION METHOD FOR CELL MASS INCLUDING NEURAL CELLS/TISSUE AND NON-NEURAL EPITHELIAL TISSUE, AND CELL MASS FROM SAME” (SUMITOMO CHEMICAL COMPANY, LIMITED, priority 2017, published 2021).
